The assay deals with DNA gyrase (Escherichia coli, UniProt P0AES4+P0AES6). The assay is described as follows: Inhibition of DNA gyrase supercoiling in Escherichia coli. It is filed as protein-complex assay.
Turning to `O=c1oc2cc(O)c(O)cc2c2cc(O)c(O)cc12`, the IC50 (commonly the concentration at which inhibition is half-maximal) was 307 µM.

For `O=c1oc2c(O)c(O)ccc2c2ccccc12`, the IC50 is greater than 2190 µM.

In turn, `O=c1oc2c(F)c(F)ccc2c2cc(O)c(O)cc12` had an IC50 of 151 µM.

In turn, `O=c1oc2cc(O)c(O)cc2c2cc(F)ccc12` had an IC50 of 1500 µM.

In the case of `O=c1oc2ccccc2c2cc(O)c(O)cc12`, the IC50 is greater than 2190 µM.

As for `O=c1oc2c(O)c(O)ccc2c2cc(F)ccc12`, 447 µM corresponded to half-maximal inhibition (IC50).

`O=c1oc2c(O)c(O)cc3c(=O)oc4c(O)c(O)cc1c4c23` [ELLAGIC ACID] had an IC50 of 156 µM.

In turn, `O=C1c2cc(O)c(O)cc2-c2cc(O)c(O)cc21` showed an IC50 of 53.2 µM.

`O=c1oc2c(O)c(O)ccc2c2cc(O)c(O)cc12` showed an IC50 of 500 µM.

`Cc1cc(O)c(O)c2oc(=O)c3ccc(F)cc3c12` had an IC50 greater than 1920 µM.

On to `Cc1cc(O)c(O)c2oc(=O)c3cc(O)c(O)cc3c12`, for which inhibition was half-maximal at 511 µM (IC50).

Compound `O=c1oc2c(O)c(O)ccc2c2ccc(O)cc12` gave an IC50 of 328 µM.

In turn, `O=c1oc2ccccc2c2ccccc12` returned an IC50 greater than 2550 µM.

The compound `O=c1oc2c(Cl)c(Cl)ccc2c2cc(O)c(O)cc12` showed an IC50 of 942 µM.

Compound `ONC1c2cc(O)c(O)cc2-c2cc(O)c(O)cc21` gave an IC50 of 7.66 µM.

The record behind these values is ChEMBL document CHEMBL1130981, “DNA gyrase inhibitory activity of ellagic acid derivatives” (Bioorg Med Chem Lett, 1998).
